Several values for one entry are separate records, joined by “and”; a condition that tells them apart may be missing. Equal values may be shown once. Read-outs that look alike come from different tables or passages of the source.
B1: P128: anti-staphylococcal chimeric protein: phage tail associated muralytic enzyme (TAME) cell wall-degrading region plus staphylococcus-specific binding region; SEQ ID NO: 1 (protein)
chain: MSLDSLKKYNGKLPKHDPSFVQPGNRHYKYQCTWYAYNRRGQLGIPVPLWGDAADWIGGAKGAGYGVGRTPKQGACVIWQRGVQGGSPQYGHVAFVEKVLDGGKKIFISEHNYATPNGYGTRTIDMSSAIGKNAQFIYDKKLETPNTGWKTNKYGTLYKSESASFTPNTDIITRTTGPFRSMPQSGVLKAGQTIHYDEVMKQDGHVWVGYTGNSGQRIYLPVRTWNKSTNTLGVLWGTIK
modifications: P128 chimera

How the values were obtained:
[1] = tested on: S. haemolyticus B9511 biofilms; test: MBIC and checkerboard synergy on preformed biofilm (MTT assay); format: cell-based; settings: S. haemolyticus B9511 72 h preformed biofilm, 6 hr treatment
Protocol: (§1) […] LB supplemented with 50 μg/mL Ca^++ was used for daptomycin treatment wells. The contents of the well was aspirated out and discarded. The biofilm adhered to the wells was quantified by MTT assay as described above. In each experiment, in addition to the combination MBIC, the MBIC of each drug was also determined individually. The fractional MBIC concentrations were determined by MTT dye method as described above. The FICI and synergy was calculated.

[2] = tested on: S. lugdunensis B9510 biofilms; test: as above; format: cell-based; settings: S. lugdunensis B9510 72 h preformed biofilm, 6 hr treatment
Protocol: as §1

S. aureus MW2 biofilms = test: Biofilm eradication/biomass removal, crystal violet staining; format: cell-based, Staphylococcus aureus; settings: for Activity on preformed biofilm, crystal violet: 500 μg/mL for 24 h, MSSA and MRSA strains
Protocol: Dis. 209:1469-78 was followed. Briefly, S. aureus MW2 strain grown on blood agar plates was inoculated into TSB with 2% glucose and the culture was grown overnight. The culture was diluted 1:50 in TSB to achieve an […] of the diluted culture was added to 1.8 mL of TSB media aliquoted into each well of a 24 well plate (˜5×10^5 CFU). The plates were kept at 37° C. under static conditions for 18 h, the contents were aspirated, the wells were washed twice with 2.0 mLmL of 1×PBS, and 1 mLmL of media+1 mLmL of the drug was added to each well and incubated at 37° C. for 0, 2, 4 and 24 h. The contents were aspirated out at the stipulated time points and the wells were washed with 2 mL of 1×PBS. The wells were allowed to dry at 37° C. for 15 min and stained with 1 mLmL of 1% CV for 5 min. The wells were washed with 1 mLmL of 1×PBS, air dried and observed for intensity of blue color.
(§2) 0.1% CV was used for staining biofilms. Post staining and washing steps, 1 mL 30% acetic acid is added to each well, incubated in RT for 5-10 min, contents in the well are mixed thoroughly and OD was read at 570 nm.

S. aureus biofilm = test: Bactericidal activity on biofilm (CFU reduction); format: cell-based, Staphylococcus aureus; settings: for Reduction in CFU counts: S. aureus MW2 biofilm on catheters, P128 8 μg/mL, daptomycin 10 μg/mL, vancomycin 15 μg/mL
Protocol: In order to determine whether P128 could also act as a bactericidal agent in biofilms, the CFU reduction were monitored in S. aureus ATCC 29213 72 h preformed biofilms treated with various concentrations of P128 for 6 h. For CFU enumeration in catheter biofilm, the catheters were removed from the tubes, rinsed twice in PBS and placed in eppendorf tubes containing 1 mL PBS. To release the adhered biofilm into PBS, the catheters were scraped using inoculation loop. The samples were vortexed thoroughly and plated on LB agar plates.

[3] = tested on: S. epidermidis, S. lugdunensis and S. haemolyticus biofilms; test: CoNS biofilm eradication, crystal violet staining; format: cell-based; settings: for Activity on preformed biofilm, crystal violet: 250 and 100 μg/mL for 4 h, all three CoNS
Protocol: Dis. 209:1469-78 was followed. Briefly, S. epidermidis, S. lugdunensis and S. haemolyticus strains were inoculated into TSB with 2% glucose and the cultures were grown overnight. The cultures were diluted 1:50 in TSB to achieve an OD600˜0.1. Two hundred micro liter of the diluted culture was added to 1.8 ml of TSB media aliquoted into each well of a 24 well plate (˜5×10^5 CFU). The plates were kept at 37° C. under static conditions for 18 h, the contents were aspirated, the wells were washed twice with 2.0 ml of 1×PBS, and 1 mL of media+1 mL of the drug was added to each well and incubated at 37° C. for 0, 2, 4, and 24 h. TSB supplemented with 50 μg/ml Ca^++ was used for daptomycin treatment wells. The contents were aspirated out at the stipulated time points and the wells were washed with 2 ml of 1×PBS. The wells were allowed to dry at 37° C. for 15 min and stained with 1 mL of 1% CV for 5 min. The wells were washed with 1 mL of 1×PBS, air dried and observed for intensity of blue color.
as §2

[4] = tested on: S. epidermidis B9470 persisters; test: P128 and antibiotic activity on persisters (CFU); format: cell-based, Staphylococcus epidermidis; settings: 1×MIC, P128 1 h, antibiotics 6 h
Protocol: Persisters were generated as above were treated with P128 and antibiotics (Ref: Gutiérrez, et al. (2014) Effective Removal of Staphylococcal Biofilms by the Endolysin LysH5 PLoS One 9(9): e107307).
To 450 μL aliquots, P128. Daptomycin and Vancomycin (in saline) were added (individually) each at 1×MIC Conc., and another 450 μL aliquot was taken as control. The persister samples treated with P128 were incubated for 1 h, 37° C., and 200 rpm and those treated with antibiotics were incubated for 6 h, 37° C., and 200 rpm. After incubation samples were serially log diluted and plated.

S. aureus COL = format: in vivo, BALB/c mice; settings: P128 0.2 mg/kg ip single dose, or both
Protocol: A standard mouse model of S. aureus bacteremia was used. Zuluaga, et al. (2006) “Neutropenia induced in out bred mice by a simplified low-dose cyclophosphamide regimen: Characterization and applicability to diverse experimental models of infectious diseases” BMC Infect. Dis. 6:55-64. Female BALB/c mice of 8-9 weeks age were challenged by intraperitoneal route with S. aureus COL at 10^9 CFU per animal. After the bacterial challenge, animals were treated through parenteral routes with P128 alone or P128 in combination with standard of care antibiotics (e.g., vancomycin, daptomycin, linezolid, oxacillin, etc.). Animals were monitored for survival for a period of 72 hours. In this model of infection, normal as well as immunocompromised (neutropenia induced by cyclophosphamide) mice were used to evaluate P128 and antibiotic-P128 combinations.
Eight to nine weeks old female BALB/c mice were challenged intraperitoneally with 10^9 CFU of S. aureus COL. At 2 hours post-infection, animals were treated with either P128 at 0.2 mg/kg via intraperitoneal route, or vancomycin at 55 mg/kg by subcutaneous route, or a combination of both by respective routes. Groups treated with only vancomycin or combination of P128 and vancomycin were administered a second dose of vancomycin 12 hours after the first dose.
In the same model, efficacy of daptomycin in combination with P128 was evaluated. At 2 hours post-infection, animals were treated with either P128 at 0.2 mg/kg administered by intraperitoneal route, or daptomycin at 12.5 mg/kg administered by subcutaneous route; or a combination of both administered by respective routes. Groups treated with only daptomycin or combination of P128 and daptomycin were administered a second dose of daptomycin 12 hours after the first daptomycin dose.

[5] = S. aureus COL 10^9 CFU ip, Vancomycin 55 mg/kg sc 2 doses, 26 mice per group
[6] = S. aureus COL, Daptomycin 12.5 mg/kg sc 2 doses, 24 mice per group

| Molecule | MBIC (drug alone) [1] | MBIC (drug alone) [2] | Activity on preformed biofilm, crystal violet (S. aureus MW2 biofilms) | Reduction in CFU counts (S. aureus biofilm) | Activity on preformed biofilm, crystal violet [3] | CFU/mL after treatment of persisters ([4]; B9470 Daptomycin persisters) | CFU/mL after treatment of persisters ([4]; B9470 Vancomycin persisters) | Survival at 72 h post infection (S. aureus COL; [5]) | Survival at 72 h post infection (S. aureus COL; [6]) | Time of treatment to eliminate the biofilms (S. aureus MW2 biofilms; P128 at 1×MIC (8 μg/mL)) | OD570 of crystal violet vs cell control (S. aureus MW2 biofilms; even after 24 h) | Cells killed (S. aureus biofilm; S. aureus ATCC 29213 72 h biofilm, P128 7.8 μg/mL, 6 h) | Cell killing (S. aureus biofilm; S. aureus ATCC 29213 72 h biofilm, P128 greater than 31 μg/mL, 6 h) | Removal of visual biomass ([3]; P128 8 μg/mL (1×MIC), SOC antibiotics 250×MIC or 100×MIC) | Time of treatment to eliminate the biofilms ([3]; P128 at 1×MIC (8 μg/mL)) | OD570 of crystal violet vs cell control ([3]; even after 24 h, all three CoNS sp.) |
| --- | --- | --- | --- | --- | --- | --- | --- | --- | --- | --- | --- | --- | --- | --- | --- | --- |
| CN[C@H](CC(C)C)C(=O)N[C@H]1C(=O)N[C@@H](CC(N)=O)C(=O)N[C@H]2C(=O)N[C@H]3C(=O)N[C@H](C(=O)N[C@H](C(=O)O)c4cc(O)cc(O)c4-c4cc3ccc4O)[C@H](O)c3ccc(c(Cl)c3)Oc3cc2cc(c3O[C@@H]2O[C@H](CO)[C@@H](O)[C@H](O)[C@H]2O[C@H]2C[C@](C)(N)[C@H](O)[C@H](C)O2)Oc2ccc(cc2Cl)[C@H]1O [Vancomycin, vancomycin] | >250 µg/mL | 250 µg/mL | insignificant activity | no significant effect | poor activity | 5 × 10^5 CFU/mL | 1.5 × 10^3 CFU/mL | 46% | – | – | – | – | – | – | – | – |
| CCCCCCCCCC(=O)N[C@@H](Cc1c[nH]c2ccccc12)C(=O)N[C@H](CC(N)=O)C(=O)N[C@@H](CC(=O)O)C(=O)N[C@@H]1C(=O)NCC(=O)N[C@@H](CCCN)C(=O)N[C@@H](CC(=O)O)C(=O)N[C@H](C)C(=O)N[C@@H](CC(=O)O)C(=O)NCC(=O)N[C@H](CO)C(=O)N[C@@H]([C@H](C)CC(=O)O)C(=O)N[C@@H](CC(=O)c2ccccc2N)C(=O)O[C@@H]1C [Daptomycin, daptomycin] | >250 µg/mL | 15.6 µg/mL | insignificant activity | 1 log | poor activity | 1.3 × 10^6 CFU/mL | 2.1 × 10^2 CFU/mL | – | 45% | – | – | – | – | – | – | – |
| CC(=O)NC[C@H]1CN(c2ccc(N3CCOCC3)c(F)c2)C(=O)O1 [Linezolid, linezolid] | >250 µg/mL | 125 µg/mL | insignificant activity | – | poor activity | – | – | – | – | – | – | – | – | – | – | – |
| B1 | 6.25 µg/mL and 12.5 µg/mL | 32 µg/mL and 16 µg/mL | – | 3 log | – | 2.5 × 10^2 CFU/mL | 7 × 10^1 CFU/mL | 30% | 45% | ≤ 2 h | significant drop in OD | > 90% | 99.9% | removed all visual biomass | ≤ 2 h | significant drop in OD |

— patent US20190282673A1, “STAPHTAME ACTIVITY ON BIOFILMS” (priority 2016, published 2019)
